Measured values: US9751861B2, “N1-(3,3,3-trifluoro-2-hydroxo-2-methylpropionyl)-piperidine derivatives as inhibitors of pyruvate dehydrogenase kinase” (MERCK PATENT GMBH, priority 2013, dated 2017)

Experiments:
[1] = target: T1, human PDHK2 (12-407) (Homo sapiens, UniProt Q15119); test: Isothermal titration calorimetry (ITC) binding; conditions: 30° C., pH 7.5
T1 construct: The human PDHK2 (12-407) was produced in E. coli; His-tag (cleaved yes); made in house; host or cells: E. coli
Outline: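 Untagged PDHK2 (12-407) from E. coli at 50 μM titrated into 5 μM compound at 30° C in pH 7.5 HEPES/KCl/MgCl2/phosphate buffer, ≤1% DMSO. One-site fit gave KA, ΔH^obs and N after heat-of-dilution correction; protein concentration referenced to a standard inhibitor and compound concentration adjusted to 1:1 stoichiometry.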

[2] = tested on: PDH-Elalpha (pSer300); test: Cellular immunofluorescence assay in HEK293T cells; type: cell-based; conditions: Homo sapiens, HEK-293T, 5 hours incubation, anti-PDH-E1alpha pSer300 immunofluorescence, read-out: IC50 (cell data)
Outline: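 HEK293T cells were exposed to compound for 5 hours, then fixed, permeabilised and immunostained for PDH-Elalpha pSer300 with Hoechst counterstain, read by laser scanning cytometry. Percent effect was normalized to a pharmacological inhibitor control and fitted to dose-response curves.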

[3] = target: T2, PDHK2 (Homo sapiens, UniProt Q15119); test: Biochemical activity testing of PDHK2: PDC inactivation assay; conditions: human rec PDHK2, PDC from porcine heart, ATP 5 μM; read-out: IC50 PDHK2 (enzyme assay)
T2 construct: purchased Carna Bioscience
Outline: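 Human recombinant PDHK2 (137 nM final) preincubated 30 min at RT with porcine heart PDC (20 mU/ml) and compound in pH 7.0 phosphate buffer, then phosphorylated with 5 μM ATP for 30 min at 37 °C. Residual PDC activity read as NADH fluorescence increase (Ex 340/Em 450) over 45 min; inhibitor-free reaction as full value, 3 mM DCA as zero, IC50 derived.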

Compound | Kd [1] [nM] | IC50 [2] [nM] | IC50 [3] [nM]
C[C@@](O)(C(=O)N1CCC(n2cncc2-c2ccc(Cl)cc2)CC1)C(F)(F)F [Compound A64, (2R)-1-[4-[5-(4-chlorophenyl)imidazol-1-yl]-1-piperidyl]-3,3,3-trifluoro-2-hydroxy-2-methyl-propan-1-one] | < 300 | 300 to 3000 | < 300
C[C@@](O)(C(=O)N1CCC(c2ccnn2-c2ccc(Cl)c(Cl)c2)CC1)C(F)(F)F [Compound A101, (R)-1-{4-[2-(3,4-Dichloro-phenyl)-2H-pyrazol-3-yl]-piperidin-1-yl}-3,3,3-trifluoro-2-hydroxy-2-methyl-propan-1-one] | < 300 | 300 to 3000 | 300 to 3000
Cc1cc(-n2nccc2C2CCN(C(=O)[C@@](C)(O)C(F)(F)F)CC2)no1 [Compound A115, (R)-3,3,3-Trifluoro-2-hydroxy-2-methyl-1-{4-[2-(5-methyl-isoxazol-3-yl)-2H-pyrazol-3-yl]-piperidin-1-yl}-propan-1-one] | < 300 | 3000 to 50000 | 300 to 3000

The remaining lines, values ahead:

Kd [1] [nM] | IC50 [2] [nM] | IC50 [3] [nM] | Compound
< 300 | < 300 | < 300 | C[C@@H]1CN(C(=O)[C@@](C)(O)C(F)(F)F)CC[C@@H]1c1ccnn1-c1ccccc1 [Compound A106, (R)-3,3,3-Trifluoro-2-hydroxy-2-methyl-1-[(3S,4S)-3-methyl-4-(2-phenyl-2H-pyrazol-3-yl)-piperidin-1-yl]-propan-1-one]
< 300 | 300 to 3000 | 300 to 3000 | C[C@@](O)(C(=O)N1CCC(c2ccnn2-c2ccc(OC(F)F)cc2)CC1)C(F)(F)F [Compound A96, (R)-1-[4-[2-[4-(Difluoromethoxy)phenyl]-2H-pyrazol-3-yl]-1-piperidyl]-3,3,3-trifluoro-2-hydroxy-2-methyl-propan-1-one]
